From PubChem BioAssay AID1963451 (Molecular Pharmacology Branch, DTP, NCI, 2024)
pIC50: −log10 of the molar value. “And” between values parts separate entries of the source, which are not always exact repeats. Identical values can stand only once.

Test system: 521955-158-R6-J3-PDC complex spheroid growth, % test/control
Assay: Anticancer human tumor 521955-158-R6-J3-PDC patient-derived pancreatic carcinoma cell line growth inhibition [Asc]
Conditions: for viability, T/C: stronger effect = lower value
Procedure: Multicellular complex tumor spheroid response to apoptosis pathway targeting inhibitors Alrizomadlin, Pelcitoclax, and Dasminapant in combination with a variety of drugs and investigational agents in selected tumor cell lines
The MDM2 inhibitor alrizomadlin, the Bcl-2/Bcl-xL inhibitor pelcitoclax, and the IAPs inhibitor dasminapant were evaluated both individually and in combination with standard of care and investigational anticancer small molecules within a complex spheroid model of solid tumors. . Complex spheroids include a stromal component modeled by human endothelial cells (HUVEC) and fibroblasts modeled by human mesenchymal stem cells (MSCs). The concentration ranges selected for each drug and investigational agent were based upon clinically achievable concentrations if the clinical Cmax of the agent was known.
Compounds. The drugs and investigational agents: alrizomadlin (APG-115; NSC831270), pelcitoclax (APG-1252; NSC835773), dasminapant (APG-1387;NSC834197), TAK-243 (NSC785004), copanlisib (NSC809693), olaparib (NSC753686), talazoparib (NSC767125), cobimetinib (NSC 768068), eltanexor (KPT-8602, NSC 794443), abemaciclib (NSC 768073), sotorasib (NSC818433), adagrasib (NSC 831453), MRTX-1133 (NSC 836407), Iadademestat (ORY1001, NSC 806812), and RMC-4630 (NSC839698), were obtained from the NCI Developmental Therapeutics Program Chemical Repository. The FDA-approved anticancer drug set is available from the Developmental Therapeutics Program at https://dtp.cancer.gov/organization/dscb/obtaining/available plates.htm. […] The stock solutions were prepared in dimethyl sulfoxide (DMSO, Sigma-Aldrich, St. Louis, MO, cat. D2650) at 800-fold the tested concentration and stored at -70 degrees C prior to their use. All drugs and investigational agents were tested over a range starting from a high concentration at or near the clinical Cmax and decreasing in half-log increments. If the clinical Cmax for an agent had not been determined, the highest concentration tested was 10 microM.
The patient-derived cancer (PDC) cell lines include five colon adenocarcinomas: 186277-243-T-J2-PDC, 616215-338-R-J1-PDC, 439559-082-T-J2-PDC, 463943-066-T-J2-PDC, and 519858-162-T-J1-PDC; three pancreatic carcinomas: 323965-272-R-J2-PDC, 521955-158-R6-J3-PDC, and 521955-158-R2-J5-PDC; two uterine sarcomas: 327498-152-R-J2-PDC and 993429-296-R-J1-PDC; two rhabdomyosarcomas: 755483-174-R-J1-PDC and 772245-204-R-J1-PDC; two soft tissue sarcomas: 126254-015-R-J1-PDC and 494315-158-R-J1-PDC; two malignant fibrous histiocytomas: 317291-083-R-J1-PDC and 596521-263-R-J1-PDC; two breast carcinomas: 171881-019-R-J1-PDC and 885512-296-R-J2-PDC; and one ovarian carcinoma: 6556581-035-R-J-PDC were obtained from the NCI PDMR, (https://pdmr.cancer.gov). The established cell lines HSSY-2 synovial sarcoma (RRID:CVCL 8719), SYO-1 synovial sarcoma (RRID:CVCL_7146), MPNST malignant peripheral neural sheath tumor were obtained from the Sloan Kettering Institute. The following established cell lines were purchased from the American Type Culture Collection (ATCC, Manassas, VA), Sor the received from the NCI repository:, PANC-1 pancreatic carcinoma (CRL-1469, RRID:CVCL_0480), OVCAR-5 ovarian carcinoma (RRID:CVCL_1628), OVCAR-8 ovarian carcinoma (RRID:CVCL_1629), , MCF-7 breast carcinoma (CRL-12584, RRID:CVCL_0031), MDA-MB-231 breast carcinoma (CRL-12532, RRID:CVCL_0062), NCI-H1876 small cell lung carcinoma (CRL-5902, RRID:CVCL_1503), NCI-H510A small cell lung carcinoma (HTB-184, RRID:CVCL_1565), NCI-H1417 (CRL-5869, RRID:CVCL_1469), and NCI-H196 small cell lung carcinoma (CRL-5823, RRID:CVCL_1509). Dr. Peter Houghton (Greehey Children's Cancer Research Institute, University of Texas Health Science Center, San Antonio, TX) provided Rh-18 rhabdomyosarcoma (RRID:CVCL_1659). Pooled donor human umbilical vein endothelial cells (HUVEC, Lonza, cat. CC-2519) and human mesenchymal stem cells (hMSC, Lonza, cat. PT-2501) were purchased from Lonza (Walkersville, MD).
Cell Culture. […]
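Further: spheroids exposed to compounds for 7 days.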
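Wherever viability, T/C is given: 100% = DMSO vehicle control wells.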

NC(=O)C(=Cn1cnc(-c2cc(C(F)(F)F)cc(C(F)(F)F)c2)n1)c1cncnc1
viability, T/C (compound 0.000949 µM): 105% and 126% and 111%
viability, T/C (compound 0.003 µM): 96.3% and 105% and 115%
viability, T/C (compound 0.00949 µM): 84.8% and 93.3% and 105%
viability, T/C (compound 0.03 µM): 98% and 98.2% and 115%
viability, T/C (compound 0.0949 µM): 124% and 107% and 73.9%
viability, T/C (compound 0.3 µM): 121% and 93.9% and 62.7%
pIC50 (curve of compound): < 6.52

C=CC(=O)N1CCN(c2nc(=O)n(-c3c(C)ccnc3C(C)C)c3nc(-c4c(O)cccc4F)c(F)cc23)C(C)C1 (stereo unspecified) + CNC(C)C(=O)NC1CN(S(=O)(=O)c2cccc(S(=O)(=O)N3CCC4CCC(C(=O)NC(c5ccccc5)c5ccccc5)N4C(=O)C(NC(=O)C(C)NC)C3)c2)CCC2CCC(C(=O)NC(c3ccccc3)c3ccccc3)N2C1=O
pIC50 (curve of first compound, second compound 0.00316 µM): < 5.00
pIC50 (curve of first compound, second compound 0.01 µM): < 5.00
pIC50 (curve of first compound, second compound 0.0316 µM): < 5.00
pIC50 (curve of first compound, second compound 0.1 µM): < 5.00
pIC50 (curve of first compound, second compound 0.316 µM): < 5.00
pIC50 (curve of first compound, second compound 1 µM): < 5.00
viability, T/C (second compound 0.00316 µM, first compound 0.0316 µM): 98.2%
viability, T/C (second compound 0.00316 µM, first compound 0.1 µM): 110%
viability, T/C (second compound 0.00316 µM, first compound 0.316 µM): 116%
viability, T/C (second compound 0.00316 µM, first compound 1 µM): 121%
viability, T/C (second compound 0.00316 µM, first compound 3.16 µM): 98.8%
viability, T/C (second compound 0.00316 µM, first compound 10 µM): 80.4%
viability, T/C (second compound 0.01 µM, first compound 0.0316 µM): 121%
viability, T/C (second compound 0.01 µM, first compound 0.1 µM): 85.3%
viability, T/C (second compound 0.01 µM, first compound 0.316 µM): 89.8%
viability, T/C (second compound 0.01 µM, first compound 1 µM): 94.9%
viability, T/C (second compound 0.01 µM, first compound 3.16 µM): 105%
viability, T/C (second compound 0.01 µM, first compound 10 µM): 81.3%
viability, T/C (second compound 0.0316 µM, first compound 0.0316 µM): 95.2%
viability, T/C (second compound 0.0316 µM, first compound 0.1 µM): 76.5%
viability, T/C (second compound 0.0316 µM, first compound 0.316 µM): 108%
viability, T/C (second compound 0.0316 µM, first compound 1 µM): 95.1%
viability, T/C (second compound 0.0316 µM, first compound 3.16 µM): 104%
viability, T/C (second compound 0.0316 µM, first compound 10 µM): 70.8%
viability, T/C (second compound 0.1 µM, first compound 0.0316 µM): 92.2%
viability, T/C (second compound 0.1 µM, first compound 0.1 µM): 78.7%
viability, T/C (second compound 0.1 µM, first compound 0.316 µM): 88%
viability, T/C (second compound 0.1 µM, first compound 1 µM): 108%
viability, T/C (second compound 0.1 µM, first compound 3.16 µM): 93%
viability, T/C (second compound 0.1 µM, first compound 10 µM): 66.7%
viability, T/C (second compound 0.316 µM, first compound 0.0316 µM): 89.7%
viability, T/C (second compound 0.316 µM, first compound 0.1 µM): 91.6%
viability, T/C (second compound 0.316 µM, first compound 0.316 µM): 79.2%
viability, T/C (second compound 0.316 µM, first compound 1 µM): 107%
viability, T/C (second compound 0.316 µM, first compound 3.16 µM): 100%
viability, T/C (second compound 0.316 µM, first compound 10 µM): 84.2%
viability, T/C (second compound 1 µM, first compound 0.0316 µM): 81.4%
viability, T/C (second compound 1 µM, first compound 0.1 µM): 82.5%
viability, T/C (second compound 1 µM, first compound 0.316 µM): 89.5%
viability, T/C (second compound 1 µM, first compound 1 µM): 88.7%
viability, T/C (second compound 1 µM, first compound 3.16 µM): 94.6%
viability, T/C (second compound 1 µM, first compound 10 µM): 83.5%

C#Cc1c(F)ccc2cc(O)cc(-c3ncc4c(N5CC6CCC(C5)N6)nc(OCC56CCCN5CC(F)C6)nc4c3F)c12 (stereo unspecified)
viability, T/C (compound 0.0316 µM): 60.7% and 66.5% and 60.8%
viability, T/C (compound 0.1 µM): 52.9% and 52% and 53.5%
viability, T/C (compound 0.316 µM): 46% and 58.3% and 47.4%
viability, T/C (compound 1 µM): 48% and 45.1% and 47%
viability, T/C (compound 3.16 µM): 33.9% and 35.5% and 44.9%
viability, T/C (compound 10 µM): 18.6% and 32.2%
pIC50 (curve of compound): 6.47 and 6.34 and 6.41
